biological target: T1, PRMT5/MEP50 complex (Homo sapiens, UniProt O14744); test: PRMT5:MEP50 HotSpot Assay (full-length histone H2A substrate, plus and minus MTA); assay type: biochemical; conditions: IC50 + 2 μM MTA, in the presence of 2 μM MTA
T1 construct: purchased Reaction Biology Corporation
Procedure: The PRMT5 inhibitory activity of compounds of the present invention was determined using either a PRMT5:MEP50 FlashPlate Assay (Reaction Biology Corporation) or a PRMT5:MEP50 HotSpot Assay (Reaction Biology Corporation).
The assay uses recombinant full-length hi stone H2A as the PRMT5 substrate. […] The reaction was stopped and transferred to filter paper for detection. The amount of tritiated H2A in each sample was determined using a scintillation counter.

T1 sequence (O14744 2-637 limits assumed): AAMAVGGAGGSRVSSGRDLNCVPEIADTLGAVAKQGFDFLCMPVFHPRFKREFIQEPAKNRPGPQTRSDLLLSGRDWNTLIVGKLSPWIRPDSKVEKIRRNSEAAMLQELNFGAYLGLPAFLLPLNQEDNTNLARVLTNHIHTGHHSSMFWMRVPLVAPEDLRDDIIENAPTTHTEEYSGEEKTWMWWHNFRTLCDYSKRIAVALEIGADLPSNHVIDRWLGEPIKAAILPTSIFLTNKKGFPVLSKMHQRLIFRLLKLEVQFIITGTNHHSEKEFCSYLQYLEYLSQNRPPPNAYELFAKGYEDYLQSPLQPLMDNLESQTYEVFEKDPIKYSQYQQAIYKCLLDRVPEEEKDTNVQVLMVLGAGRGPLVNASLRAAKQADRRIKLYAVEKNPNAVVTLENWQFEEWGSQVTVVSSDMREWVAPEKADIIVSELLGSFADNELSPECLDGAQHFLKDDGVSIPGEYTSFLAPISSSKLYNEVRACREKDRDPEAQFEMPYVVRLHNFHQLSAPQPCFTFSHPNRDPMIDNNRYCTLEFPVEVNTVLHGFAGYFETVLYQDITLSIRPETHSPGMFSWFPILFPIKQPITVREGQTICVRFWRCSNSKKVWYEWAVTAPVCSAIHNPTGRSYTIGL
T1 sequence (Q9BQA1 2-342 partner limits assumed): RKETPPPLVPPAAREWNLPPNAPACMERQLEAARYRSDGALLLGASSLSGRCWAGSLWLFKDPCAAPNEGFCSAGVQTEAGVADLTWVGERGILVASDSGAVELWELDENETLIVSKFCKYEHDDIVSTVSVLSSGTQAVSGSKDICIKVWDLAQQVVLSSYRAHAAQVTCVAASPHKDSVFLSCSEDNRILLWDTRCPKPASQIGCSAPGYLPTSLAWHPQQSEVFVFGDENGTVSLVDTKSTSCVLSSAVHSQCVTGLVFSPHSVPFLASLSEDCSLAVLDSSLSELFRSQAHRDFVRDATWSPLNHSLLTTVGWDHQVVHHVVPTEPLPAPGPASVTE

SMILES | IC50 [nM]
Cn1ncc(-c2ccc3c(=O)[nH]nc(CN)c3c2)c1-c1c(C(F)F)cc2ccccc2c1C#N (single isomer, unassigned) [Example 16-130, (M)-2-(4-(4-(aminomethyl)-1-oxo-1,2-dihydrophthalazin-6-yl)-1-methyl-1H-pyrazol-5-yl)-3-(difluoromethyl)-1-naphthonitrile] | 92
N#Cc1ccccc1-n1c(-c2ccc3c(=O)[nH]nc(CN)c3c2)cnc1CO [Example 4-194, 2-(5-(4-(aminomethyl)-1-oxo-1,2-dihydrophthalazin-6-yl)-2-(hydroxymethyl)-1H-imidazol-1-yl)benzonitrile] | 3820
Cn1ncc(-c2ccc3c(=O)[nH]nc(CN)c3c2)c1-c1ccc2n1C(=O)CCC2 [Example 4-278, 4-(aminomethyl)-6-(1-methyl-5-(5-oxo-5,6,7,8-tetrahydroindolizin-3-yl)-1H-pyrazol-4-yl)phthalazin-1(2H)-one] | 1000
Cc1ncc(-c2ccc3c(=O)[nH]nc(CN)c3c2)n1-c1sc2ccccc2c1C#N [Example 4-288, 2-(5-(4-(aminomethyl)-1-oxo-1,2-dihydrophthalazin-6-yl)-2-methyl-1H-imidazol-1-yl)benzo[b]thiophene-3-carbonitrile] | 1480
Cn1ncc(-c2ccc3c(=O)[nH]nc(CN)c3c2)c1N1CCCCC1C#N (centres unmarked) [Example 4-289, 1-(4-(4-(aminomethyl)-1-oxo-1,2-dihydrophthalazin-6-yl)-1-methyl-1H-pyrazol-5-yl)piperidine-2-carbonitrile] | 4080
Cn1ncc(-c2ccc3c(=O)[nH]nc(CN)c3c2)c1N1CCCC1C#N (centres unmarked) [Example 4-290, 1-(4-(4-(aminomethyl)-1-oxo-1,2-dihydrophthalazin-6-yl)-1-methyl-1H-pyrazol-5-yl)pyrrolidine-2-carbonitrile] | 168
Cn1nnc(-c2ccc3c(=O)[nH]nc(CN)c3c2)c1-c1sc2ccccc2c1C#N [Example 4-291, 2-(4-(4-(aminomethyl)-1-oxo-1,2-dihydrophthalazin-6-yl)-1-methy1-1H-1,2,3-triazol-5-yl)benzo[b]thiophene-3-carbonitrile] | 737
Cn1ncc(-c2ccc3c(=O)[nH]nc([C@H](N)C(F)F)c3c2)c1-c1ccc2ccccc2c1C#N [Example 9-6, 2-[4-[4-[(1S)-1-amino-2,2-difluoro-ethyl]-1-oxo-2H-phthalazin-6-yl]-2-methyl-pyrazol-3-yl]naphthalene-1-carbonitrile] | > 10000
Cn1ncc(-c2cc(C(=O)C(F)F)c3c(=O)[nH]nc(CN)c3c2)c1-c1sc2ccccc2c1C#N [Example 15-9, 2-(4-(4-(aminomethyl)-8-(2,2-difluoro-acetyl)-1-oxo-1,2-dihydrophthalazin-6-yl)--methyl-1H-pyrazol-5-yl)benzo[b]-thiophene-3-carbonitrile] | 1270
Cn1ncc(-c2cnc3c(=O)[nH]nc(CN)c3c2)c1-c1sc2ccccc2c1C#N [Example 17-4, 2-(4-(5-(aminomethyl)-8-oxo-7,8-dihydropyrido[2,3-d]pyridazin-3-yl)-1-methyl-1H-pyrazol-5-yl)benzo[b]thiophene-3-carbonitrile] | 1310
COc1nnc(CN)c2cc(-c3cnn(C)c3-c3sc4ccccc4c3C#N)ccc12 [Example 17-6] | 7510
Cn1ncc(-c2cc3c(CN)n[nH]c(=O)c3s2)c1-c1ccc2ccccc2c1C#N [Example 17-7, 2-(4-(4-(aminomethyl)-7-oxo-6,7-dihydrothieno[2,3-d]pyridazin-2-yl)-1-methyl-1H-pyrazol-5-yl)-1-naphthonitrile] | 2310
C[C@@H](N)c1n[nH]c(=O)c2ccc(-c3cnn(C)c3-c3ccc4ccccc4c3C#N)nc12 [Example 20-1] | 1270
C[C@H](N)c1n[nH]c(=O)c2ccc(-c3cnn(C)c3-c3ccc4ccccc4c3C#N)nc12 [Example 20-2] | 200
Cn1ncc(-c2ccc3c(c2)C(CN)NC3=O)c1-c1sc2ccccc2c1C#N (centres unmarked) [Example 20-4, 2-(4-(3-(aminomethyl)-1-oxoisoindolin-5-yl)-1-methyl-1H-pyrazol-5-yl)benzo[b]thiophene-3-carbonitrile] | 1030
Cn1ncc(-c2ccc3c(c2)C(CCN)NC3=O)c1-c1sc2ccccc2c1C#N (centres unmarked) [Example 20-5, 2-[4-[3-(2-aminoethyl)-1-oxo-isoindolin-5-yl]-2-methyl-pyrazol-3-yl]benzothiophene-3-carbonitrile] | 635
Cc1ncn(-c2ccc3c(=O)[nH]nc(CN)c3c2)c1-c1sc2ccccc2c1C#N [Example 20-6, 2-[3-[4-(aminomethyl)-1-oxo-2H-phthalazin-6-yl]-5-methyl-imidazol-4-yl]benzothiophene-3-carbonitrile] | 2250
Cn1ncc(-c2ccc3c(c2)C(C)(N)CNC3=O)c1-c1sc2ccccc2c1C#N (centres unmarked) [Example 20-7, 2-(4-(4-amino-4-methyl-1-oxo-1,2,3,4-tetrahydroisoquinolin-6-yl)-1-methyl-1H-pyrazol-5-yl)benzo[b]thiophene-3-carbonitrile] | > 10000

same assay, conditions: in the absence of MTA, read-out: IC50

SMILES | IC50 [nM]
Cn1ncc(-c2ccc3c(=O)[nH]nc(CN)c3c2)c1-c1ccccc1C#N [Example 4-100, 2-(4-(4-(aminomethyl)-1-oxo-1,2-dihydrophthalazin-6-yl)-1-methyl-1H-pyrazol-5-yl)benzonitrile] | > 10000

system: HCT116 homozygous MTAP knockout cells; test: Proliferation assay (CellTiter-Glo, 10 days) in HCT116 homozygous MTAP knockout cells; assay type: cell-based; conditions: CellTiter-Glo after 10 days of treatment, read-out: Proliferation IC50 (nM) HCT116 MTAP_KO
Procedure: HCT116 cells were genetically engineered to knock out the function of both MTAP alleles using a CRISPR/Cas9 system and an sgRNA targeting the MTAP gene. Following Cas9/MTAP sgRNA transduction, clones were screened to confirm that each allele of the MTAP gene had been inactivated (i.e., homozygous MTAP knock out) creating an MTAP-deficient cell.
Control samples were analyzed in parallel.
Briefly, on Day 0, 250 HCT116 parental or HCT116 homozygous MTAP knockout cell were seeded in 96 well plates in McCoy's 5A supplemented with […] fetal bovine serum and pen/strep and the cells were incubated overnight at 37° C. plus 5% CO2.
The following day, cells were treated with DMSO vehicle control or a dose response of PRMT5 inhibitors and incubated at 37 C plus 5% CO2 for five days. On Day 6, the cells were trypsinized and split 1:10 into new 96-well plates with fresh medium containing the same concentration of PRMT5 inhibitor and incubated for an additional 5 days at 37° C. plus 5% CO^2.
On Day 11, the viability of the cells was measured using a CTG assay kit (CellTiter-Glo; Promega cat.no G7573) in accordance with the manufacturer's instructions. The IC50 values for each compound after 10 days of treatment were calculated using GraphPad PRISM software.

SMILES | IC50 [nM]
Cc1c(F)c(-c2c(-c3ccc4c(=O)[nH]nc(CN)c4c3)cnn2C)c(C#N)c2cc(Cl)cnc12 (atropisomer, axis not shown; (M)) [Example 16-34, (M)-6-[4-[4-(aminomethyl)-1-oxo-2H-phthalazin-6-yl]-2-methyl-pyrazol-3-yl]-3-chloro-7-fluoro-8-methyl-quinoline-5-carbonitrile] | 20
Cn1ncc(-c2ccc3c(=O)[nH]nc(CN)c3c2)c1-c1c(C#N)cc2cccnc2c1Cl (atropisomer, axis not shown; (M)) [Example 16-84, (M)-7-(4-(4-(aminomethyl)-1-oxo-1,2-dihydrophthalazin-6-yl)-1-methyl-1H-pyrazol-5-yl)-8-chloroquinoline-6-carbonitrile] | 123
Cn1ncc(-c2ccc3c(=O)[nH]nc(CN)c3c2)c1-c1c(C#N)cc2ncccc2c1Cl (atropisomer, axis not shown; (M)) [Example 16-86, (M)-6-(4-(4-(aminomethyl)-1-oxo-1,2-dihydrophthalazin-6-yl)-1-methyl-1H-pyrazol-5-yl)-5-chloroquinoline-7-carbonitrile] | 183
Cc1c(F)c(-c2c(-c3ccc4c(=O)[nH]nc(CN)c4c3)cnn2C)c(C#N)c2cc(Cl)cnc12 (atropisomer, axis not shown; (P)) [Example 16-33] | 626
Cn1ncc(-c2ccc3c(=O)[nH]nc(CN)c3c2)c1-c1c(C#N)cc2ncccc2c1Cl (atropisomer, axis not shown; (P)) [Example 16-85, (P)-6-(4-(4-(aminomethyl)-1-oxo-1,2-dihydrophthalazin-6-yl)-1-methyl-1H-pyrazol-5-yl)-5-chloroquinoline-7-carbonitrile] | 4380
Cn1ncc(-c2ccc3c(=O)[nH]nc(CN)c3c2)c1-c1cccc2c1COCC2(C)O (atropisomer, axis not shown; (P)) [Example 16-104, (P)-4-(aminomethyl)-6-(5-(4-hydroxy-4-methylisochroman-8-yl)-1-methyl-1H-pyrazol-4-yl)phthalazin-1(21)-one] | 3450
Cn1ncc(-c2ccc3c(=O)[nH]nc(CN)c3c2)c1-c1cc2ccccn2c1C#N [Example 4-227, 2-(4-(4-(aminomethyl)-1-oxo-1,2-dihydrophthalazin-6-yl)-1-methyl-1H-pyrazol-5-yl)indolizine-3-carbonitrile] | 2370

same assay, conditions: Homo sapiens, HCT-116, 240 h, CellTiter-Glo after 10 days of treatment, read-out: Proliferation IC50 (nM) HCT116 MTAP_KO

SMILES | IC50 [nM]
Cn1ncc(-c2ccc3c(=O)[nH]nc(CN)c3c2)c1-c1cccc2c1COCC2(C)O (atropisomer, axis not shown; (M)) [Example 16-103, (M)-4-(aminomethyl)-6-(5-(4-hydroxy-4-methylisochroman-8-yl)-1-methyl-1H-pyrazol-4-yl)phthalazin-1(2H)-one] | 4000
Cn1ncc(-c2ccc3c(=O)[nH]nc(CN)c3c2)c1-c1c(F)cc2c(c1C#N)OCO2 (atropisomer, axis not shown; (P)) [Example 16-87, (P)-5-[4-[4-(aminomethyl)-1-oxo-2H-phthalazin-6-yl]-2-methyl-pyrazol-3-yl]-6-fluoro-1,3-benzodioxole-4-carbonitrile] | 158
Cn1ncc(-c2ccc3c(=O)[nH]nc(CN)c3c2)c1-c1cc(Cl)c2c(c1C#N)OCCC2 [Example 4-261, 7-[4-[4-(aminomethyl)-1-oxo-2H-phthalazin-6-yl]-2-methyl-pyrazol-3-yl]-5-chloro-chromane-8-carbonitrile] | 81
